Source: patent US7928106B2, “Aza-pyridopyrimidinone derivatives” (Hoffmann-La Roche Inc., priority 2007, dated 2011)

Biological target: T1, HM74A receptor (Homo sapiens, UniProt Q8TDS4)
T1 construct: expressed in transfected cells; host or cells: HEK-293 cells (stably transfected), membrane preparation
Test: Primary radiolabelled ligand competition binding assay ([3H]-nicotinic acid)
Details: inhibition of [3H]-nicotinic acid binding, membranes of HEK-293 cells stably transfected with the HM74A receptor
Experimental: Primary Radiolabelled Ligand Competition Binding Assay
Nicotinic acid binding assays were performed with membrane preparations. A cell pellet containing 1×10^8 HEK-293 cells, stably transfected with the HM74A receptor, was resuspended in 3 ml of ice cold Dounce Buffer (10 mM Tris-Cl pH 7.6, 0.5 mM MgCl2) supplemented with Roche protease inhibitor cocktail and homogenized at high speed on a Polytron homogenizer two times for 20 sec on ice. Nuclei and unbroken cells were removed by centrifugation for 5 min at 1,000×g after the addition of 1 ml of tonicity restoration buffer (10 mM Tris pH 7.6, 0.5 mM MgCl2, 600 mM NaCl). The homogenate was centrifuged at 60,000×g for 30 min and pellets were resuspended in Tris buffer (50 mM Tris pH 7.4, containing protease inhibitors). Binding reactions contained 20 µg membranes as determined by BCA protein assay (Pierce), 50 nM [^3H]-nicotinic acid (Amersham) with or without compound addition in 250 μl of binding buffer (50 mM Tris pH 7.4, 2 mM MgCl2, 0.02% CHAPS). […] Bound [^3H]-nicotinic acid was determined by scintillation counting using Top Count NXT (PerkinElmer). […] The effects of compounds were expressed as % inhibition of [^3H]-nicotinic acid binding. Sigmoidal curves were fitted using the XLfit3 program (ID Business Solutions Ltd. UK) and IC50 values determined.

T1 sequence (Q8TDS4 whole entry): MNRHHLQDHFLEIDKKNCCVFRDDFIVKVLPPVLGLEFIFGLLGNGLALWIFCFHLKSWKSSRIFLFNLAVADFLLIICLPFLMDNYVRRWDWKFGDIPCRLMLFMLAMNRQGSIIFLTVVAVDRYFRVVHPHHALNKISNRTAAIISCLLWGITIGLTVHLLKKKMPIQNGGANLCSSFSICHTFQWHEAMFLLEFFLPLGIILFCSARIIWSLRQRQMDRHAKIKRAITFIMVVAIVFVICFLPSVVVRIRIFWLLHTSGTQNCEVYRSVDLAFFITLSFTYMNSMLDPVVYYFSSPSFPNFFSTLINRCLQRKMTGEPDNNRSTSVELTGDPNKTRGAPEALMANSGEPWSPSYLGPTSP

IC50 [nM] | Compound
668 | O=c1[nH]c(COCCc2cccc(Cl)c2)nc2nnccc12 [Example 7, 7-[2-(3-Chloro-phenyl)-ethoxymethyl]-6H-pyrimido[4,5-c]pyridazin-5-one]
2390 | O=c1[nH]c(COCCc2cc(F)ccc2F)nc2nccnc12 [Example 2, 2-[2-(2,5-Difluoro-phenyl)-ethoxymethyl]-3H-pteridin-4-one]
